For assay [1], the target named is full-length MALT1 protein (Strep-MALT1(1-824)-His) (Homo sapiens (Human), UniProt Q9UDY8). In words: MALT1 Biochemical Protease Assay (Ac-LRSR-AMC substrate). The conditions noted are these: 10 nM FL MALT1, 200 μM Ac-LRSR-AMC, 4 h at RT; read-out: MALT1_Biochemical activity (Ac-LRSR-amc) IC50. Summed up:
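Full-length MALT1 pre-incubated with compounds (30 μM to 0.5 nM, 11 threefold steps) for 50 min at RT. After Ac-LRSR-AMC was added, the reaction ran 4 h at RT and AMC fluorescence was read. IC50 and Hill slope from curve fitting against no-enzyme and no-compound controls.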

Assay [2] has as its system IL6 secretion by OCI-LY3 ABC-DLBCL cells. In words: Human IL6 Mesoscale assay (OCI-LY3). The format is cell-based. The conditions noted are these: Homo sapiens, 24 h. Summed up:
(§1)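 Compounds tested from 15 μM to 58.6 nM (twofold, 9 concentrations) on 100,000 cells per well over 24 h at 37° C, without beta-mercaptoethanol. Secreted cytokine in supernatant detected by MSD electrochemiluminescence; scaling used DMSO as maximum and RN486 as full inhibition.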

In assay [3] the test system is IL10 secretion by OCI-LY3 ABC-DLBCL cells. The assay is described as follows: Human IL10 Mesoscale assay (OCI-LY3). The conditions noted are these: Homo sapiens, 24 h. The format is cell-based. In a few lines:
as §1

By IC50 is commonly meant the concentration at which inhibition is half-maximal.

full-length MALT1 protein (Strep-MALT1(1-824)-His), sequence (Q9UDY8 whole entry): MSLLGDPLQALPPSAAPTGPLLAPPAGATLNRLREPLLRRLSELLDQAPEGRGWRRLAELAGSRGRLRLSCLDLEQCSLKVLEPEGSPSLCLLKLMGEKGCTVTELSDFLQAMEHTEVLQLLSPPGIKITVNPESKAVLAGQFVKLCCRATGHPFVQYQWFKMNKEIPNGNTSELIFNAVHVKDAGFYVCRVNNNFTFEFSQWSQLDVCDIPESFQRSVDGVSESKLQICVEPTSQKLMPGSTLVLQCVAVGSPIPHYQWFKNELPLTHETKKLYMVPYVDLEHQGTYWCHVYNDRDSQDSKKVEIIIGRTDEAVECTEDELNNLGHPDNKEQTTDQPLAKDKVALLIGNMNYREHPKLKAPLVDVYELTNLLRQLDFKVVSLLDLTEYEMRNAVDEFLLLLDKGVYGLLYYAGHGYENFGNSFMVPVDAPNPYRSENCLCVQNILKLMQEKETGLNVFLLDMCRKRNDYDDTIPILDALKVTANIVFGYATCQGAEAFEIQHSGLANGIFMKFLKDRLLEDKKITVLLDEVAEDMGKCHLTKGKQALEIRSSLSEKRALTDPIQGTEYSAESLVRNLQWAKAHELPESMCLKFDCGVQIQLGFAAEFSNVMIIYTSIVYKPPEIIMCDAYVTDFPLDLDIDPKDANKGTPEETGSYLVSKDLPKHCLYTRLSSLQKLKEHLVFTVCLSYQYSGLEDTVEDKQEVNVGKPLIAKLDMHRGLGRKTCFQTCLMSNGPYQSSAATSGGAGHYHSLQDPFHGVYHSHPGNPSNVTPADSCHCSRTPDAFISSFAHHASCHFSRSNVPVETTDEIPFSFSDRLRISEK

For `N#Cc1cc(NC(=O)c2cnn(-c3cccc4nc(N)sc34)c2C(F)(F)F)cnc1-n1nccn1` [Cpd 282, 1-(2-aminobenzo[d]thiazol-7-yl)-N-(5-cyano-6-(2H-1,2,3-triazol-2-yl)pyridin-3-yl)-5-(trifluoromethyl)-1H-pyrazole-4-carboxamide], the IC50 in assay [1] came to 123 nM; in assay [2], 741 nM; in assay [3], 417 nM.
Regarding `O=C(Nc1cnc(-n2ccnn2)c(C(F)(F)F)c1)c1cnn(-c2cccc3ncccc23)c1C(F)(F)F` [Cpd 283, N-(6-(1H-1,2,3-triazol-1-yl)-5-(trifluoromethyl)pyridin-3-yl)-1-(quinolin-5-yl)-5-(trifluoromethyl)-1H-pyrazole-4-carboxamide], the concentration for half-maximal inhibition (IC50) in assay [1] came out at 123 nM; in assay [2], 851 nM; in assay [3], 550 nM.
For `O=C(Nc1cnc(-n2nccn2)c(Cl)c1)c1cnn(-c2noc3ccccc23)c1C(F)(F)F` [Cpd 284, 1-(benzo[d]isoxazol-3-yl)-N-(5-chloro-6-(2H-1,2,3-triazol-2-yl)pyridin-3-yl)-5-(trifluoromethyl)-1H-pyrazole-4-carboxamide] the same measures were 120 nM, 589 nM and 724 nM.
For `O=C(Nc1cnc(-n2nccn2)c(Cl)c1)c1cnn(-c2cnc(Cl)c3ccccc23)c1C(F)(F)F` [Cpd 285, N-(5-chloro-6-(2H-1,2,3-triazol-2-yl)pyridin-3-yl)-1-(1-chloroisoquinolin-4-yl)-5-(trifluoromethyl)-1H-pyrazole-4-carboxamide] the same measures were 112 nM, 229 nM and 204 nM.
The corresponding values for `N#Cc1cc(NC(=O)c2cnn(-c3cccc4cn[nH]c34)c2C(F)(F)F)cnc1-n1nccn1` [Cpd 286, N-(5-cyano-6-(2H-1,2,3-triazol-2-yl)pyridin-3-yl)-1-(1H-indazol-7-yl)-5-(trifluoromethyl)-1H-pyrazole-4-carboxamide] are 110 nM, 200 nM and 200 nM.
On to `O=C(Nc1cnc(-n2ccnn2)c(Br)c1)c1cnn(-c2cccc3ncccc23)c1C(F)(F)F` [Cpd 287, N-(5-bromo-6-(1H-1,2,3-triazol-1-yl)pyridin-3-yl)-1-(quinolin-5-yl)-5-(trifluoromethyl)-1H-pyrazole-4-carboxamide], for which the half-maximal inhibitory concentration (IC50) in assay [1] worked out at 95 nM; in assay [2] it was 229 nM; in assay [3], 234 nM.
For `O=C(Nc1cnc(-c2ncco2)c(Cl)c1)c1cnn(-c2ccc(F)c3ncccc23)c1C(F)(F)F` [Cpd 288, N-(5-chloro-6-(oxazol-2-yl)pyridin-3-yl)-1-(8-fluoroquinolin-5-yl)-5-(trifluoromethyl)-1H-pyrazole-4-carboxamide] the same measures were 95 nM, 251 nM and 91 nM.
The corresponding values for `N#Cc1cc(NC(=O)c2cnn(-c3cnc(F)c4ccccc34)c2C(F)(F)F)cnc1-n1nccn1` [Cpd 289, N-(5-cyano-6-(2H-1,2,3-triazol-2-yl)pyridin-3-yl)-1-(1-fluoroisoquinolin-4-yl)-5-(trifluoromethyl)-1H-pyrazole-4-carboxamide] are 91 nM, 132 nM and 123 nM.
As for `O=C(Nc1cnc(-n2nccn2)c(Cl)c1)c1cnn(-c2nsc3ccccc23)c1C(F)(F)F` [Cpd 290, 1-(benzo[d]isothiazol-3-yl)-N-(5-chloro-6-(2H-1,2,3-triazol-2-yl)pyridin-3-yl)-5-(trifluoromethyl)-1H-pyrazole-4-carboxamide], the half-maximal inhibitory concentration (IC50) in assay [1] came out at 81 nM; in assay [2], 186 nM; in assay [3], 110 nM.
In the case of `N#Cc1cc(NC(=O)c2cnn(-c3cccc4nc(F)ccc34)c2C(F)(F)F)cnc1-n1nccn1` [Cpd 291, N-(5-cyano-6-(2H-1,2,3-triazol-2-yl)pyridin-3-yl)-1-(2-fluoroquinolin-5-yl)-5-(trifluoromethyl)-1H-pyrazole-4-carboxamide], the IC50 turned out to be 81 nM in assay [1], 110 nM in assay [2] and 100 nM in assay [3].
The corresponding values for `N#Cc1cc(NC(=O)c2cnn(-c3ncnc4occc34)c2C(F)(F)F)cnc1-n1nccn1` [Cpd 292, N-(5-cyano-6-(2H-1,2,3-triazol-2-yl)pyridin-3-yl)-1-(furo[2,3-d]pyrimidin-4-yl)-5-(trifluoromethyl)-1H-pyrazole-4-carboxamide] are 79 nM, 151 nM and 115 nM.
Regarding `Cn1ccc(-c2ncc(NC(=O)c3cnn(-c4cccc5nnsc45)c3C(F)(F)F)cc2Cl)n1` [Cpd 293, 1-(benzo[d][1,2,3]thiadiazol-7-yl)-N-(5-chloro-6-(1-methyl-1H-pyrazol-3-yl)pyridin-3-yl)-5-(trifluoromethyl)-1H-pyrazole-4-carboxamide], the results for the IC50 in assay [1], in assay [2] and in assay [3] were 76 nM, 447 nM and 251 nM, respectively.
For `N#Cc1cc(NC(=O)c2cnn(-c3ncnc4scnc34)c2C(F)(F)F)cnc1-n1nccn1` [Cpd 294, N-(5-cyano-6-(2H-1,2,3-triazol-2-yl)pyridin-3-yl)-1-(thiazolo[5,4-d]pyrimidin-7-yl)-5-(trifluoromethyl)-1H-pyrazole-4-carboxamide] the same measures were 76 nM, 1580 nM and 871 nM.
`Cc1nc2ccccn2c1-n1ncc(C(=O)Nc2cnc(-n3nccn3)c(C#N)c2)c1C(F)(F)F` [Cpd 295, N-(5-cyano-6-(2H-1,2,3-triazol-2-yl)pyridin-3-yl)-1-(2-methylimidazo[1,2-a]pyridin-3-yl)-5-(trifluoromethyl)-1H-pyrazole-4-carboxamide]: the IC50 turned out to be 74 nM in assay [1], 1260 nM in assay [2] and 724 nM in assay [3].
For `N#Cc1cc(NC(=O)c2cnn(-c3ncnc4ccccc34)c2C(F)(F)F)cnc1-n1nccn1` [Cpd 296, N-(5-cyano-6-(2H-1,2,3-triazol-2-yl)pyridin-3-yl)-1-(quinazolin-4-yl)-5-(trifluoromethyl)-1H-pyrazole-4-carboxamide] the same measures were 72 nM, 182 nM and 69 nM.
For `Cc1nc(-n2nccn2)c(C#N)cc1NC(=O)c1cnn(-c2cccc3scnc23)c1C(F)(F)F` [Cpd 297, 1-(benzo[d]thiazol-4-yl)-N-(5-cyano-2-methyl-6-(2H-1,2,3-triazol-2-yl)pyridin-3-yl)-5-(trifluoromethyl)-1H-pyrazole-4-carboxamide] the same measures were 251 nM, 135 nM and 115 nM.
Take `Cc1cc(-n2nccn2)c(C#N)cc1NC(=O)c1cnn(-c2cccc3scnc23)c1C(F)(F)F` [Cpd 298, 1-(benzo[d]thiazol-4-yl)-N-(5-cyano-2-methyl-4-(2H-1,2,3-triazol-2-yl)phenyl)-5-(trifluoromethyl)-1H-pyrazole-4-carboxamide]: the results for the IC50 in assay [1], in assay [2] and in assay [3] were 1350 nM, 50 nM and 25 nM, respectively.
For `Nc1cnn(-c2ncc(NC(=O)c3cnn(-c4cccc5scnc45)c3C(F)(F)F)cc2Cl)n1` [Cpd 299, N-(6-(4-amino-2H-1,2,3-triazol-2-yl)-5-chloropyridin-3-yl)-1-(benzo[d]thiazol-4-yl)-5-(trifluoromethyl)-1H-pyrazole-4-carboxamide] the same measures were 105 nM, 537 nM and 309 nM.

These data come from patent US10954214B2 (Janssen Pharmaceutica NV, priority 2016, dated 2021).
